Results on 20 compounds are retold here after ChEMBL document CHEMBL1136342, “X-ray structures of two xanthine inhibitors bound to PEPCK and N-3 modifications of substituted 1,8-dibenzylxanthines” (Bioorg Med Chem Lett, 2003).

A short description of experiment [1]: Inhibition of human phosphoenolpyruvate carboxykinase (PEPCK).
Experiment [2] is described as follows: Binding affinity against phosphoenolpyruvate carboxykinase (PEPCK) using isothermal titration calorimetry(ITC). (In general: ITC needs no label: the signal is the heat of the interaction.)

A word on the IC50: it is the concentration needed to halve the response being measured. Low values mean higher potency, high ones lower potency. Compound `CCCCn1c(=O)n(Cc2ccccc2F)c(=O)c2[nH]c(Cc3ccc(NC(C)=O)cc3)nc21` displayed an IC50 in experiment [1] of 2110 nM. Still for that read-out and setting: under `CC(=O)Nc1ccc(Cc2nc3c(=O)n(Cc4ccccc4F)c(=O)n(CCCCO)c3[nH]2)cc1` stands 2850 nM.

`CC(=O)Nc1ccc(Cc2nc3c(=O)n(Cc4ccccc4F)c(=O)n(CCCO)c3[nH]2)cc1` returned an IC50 in experiment [1] of 5450 nM. `CC(=O)Nc1ccc(Cc2nc3c(=O)n(Cc4ccccc4F)c(=O)n(CCC(=O)O)c3[nH]2)cc1` had an IC50 in experiment [1] of 2000 nM. The same measure, in the same setting: under `CC(=O)Nc1ccc(Cc2nc3c(=O)n(Cc4ccccc4F)c(=O)n(CC4CCCO4)c3[nH]2)cc1` (stereo unspecified) stands 5700 nM; under `CC(=O)Nc1ccc(Cc2nc3c(=O)n(Cc4ccccc4F)c(=O)n(CC4CC4(CO)CO)c3[nH]2)cc1` (stereo unspecified), 2000 nM; under `CC(=O)Nc1ccc(Cc2nc3c(=O)n(Cc4ccccc4F)c(=O)n(CC4CCCC4)c3[nH]2)cc1`, 3050 nM. In experiment [1], `CC(=O)Nc1ccc(Cc2nc3c([nH]2)c(=O)n(Cc2ccccc2F)c(=O)n3CC(C)C)cc1` registered an IC50 of 2020 nM. For `CCCn1c(=O)n(Cc2ccccc2F)c(=O)c2[nH]c(Cc3ccc(NC(C)=O)cc3)nc21`, the IC50 in experiment [1] came to 1490 nM.

In experiment [1], `CC(=O)Nc1ccc(Cc2nc3c(=O)n(Cc4ccccc4F)c(=O)n(CCCC(N)=O)c3[nH]2)cc1` showed an IC50 of 6600 nM. On the same count and under the same terms, with `CC(=O)Nc1ccc(Cc2nc3c(=O)n(Cc4ccccc4F)c(=O)n(Cc4ccoc4)c3[nH]2)cc1` the figure was 4500 nM; with `CCCCCCn1c(=O)n(Cc2ccccc2F)c(=O)c2[nH]c(Cc3ccc(NC(C)=O)cc3)nc21`, 8900 nM.

`COC(=O)[C@H]1CC1Cn1c(=O)n(Cc2ccccc2F)c(=O)c2[nH]c(Cc3ccc(NC(C)=O)cc3)nc21` (stereo partly specified) came in with an IC50 in experiment [1] of 3000 nM. A word on the Ki: it is a measure of affinity in units of concentration, obtained from inhibition or displacement. Read a low Ki as higher affinity. The compound `CC(=O)Nc1ccc(Cc2nc3c(=O)n(Cc4ccccc4F)c(=O)n(CCCC(=O)O)c3[nH]2)cc1` returned a Ki in experiment [2] of 200 nM. In addition, 1950 nM corresponded to half-maximal inhibition in experiment [1] (IC50). Turning to `CC(=O)Nc1ccc(Cc2nc3c(=O)n(Cc4ccccc4F)c(=O)n(CC4C[C@@H]4CO)c3[nH]2)cc1` (stereo partly specified), inhibition in experiment [1] was half-maximal at 2270 nM (IC50). Still for that read-out and setting: with `CC(=O)Nc1ccc(Cc2nc3c([nH]2)c(=O)n(Cc2ccccc2F)c(=O)n3CC2CC2)cc1` the figure was 690 nM; with `CC(=O)Nc1ccc(Cc2nc3c(=O)n(Cc4ccccc4F)c(=O)n(CC4CCC4)c3[nH]2)cc1`, 1180 nM; with `CC(=O)Nc1ccc(Cc2nc3c([nH]2)c(=O)n(Cc2ccccc2F)c(=O)n3CC2C[C@@H]2C)cc1` (stereo partly specified), 1820 nM. Still for that read-out and setting: under `CC(=O)Nc1ccc(Cc2nc3c(=O)n(Cc4ccccc4F)c(=O)n(CC4CCCCO4)c3[nH]2)cc1` (stereo unspecified) stands 4500 nM; under `CC(=O)Nc1ccc(Cc2nc3c(=O)n(Cc4ccccc4F)c(=O)n(CC4C[C@@H]4C(=O)O)c3[nH]2)cc1` (stereo partly specified), 560 nM.
